Like-named read-outs stand apart in the source and are kept apart here.
Experiments:
TREX1 = biological target: T1, TREX1 (Homo sapiens, UniProt Q9NSU2); experiment: gel-based ssDNA degradation assay, inhibition kinetics; assay type: biochemical; conditions: 15 nM or 515 nM FAM-labeled 30-mer oligo
T1 sequence (Q9NSU2 1-242): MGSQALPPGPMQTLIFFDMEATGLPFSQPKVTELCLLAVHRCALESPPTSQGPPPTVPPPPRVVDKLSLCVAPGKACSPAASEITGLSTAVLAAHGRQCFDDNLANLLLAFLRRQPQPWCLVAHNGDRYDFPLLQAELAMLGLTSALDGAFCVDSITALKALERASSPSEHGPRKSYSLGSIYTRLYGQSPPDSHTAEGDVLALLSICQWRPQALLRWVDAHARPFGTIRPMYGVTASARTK
Procedure: Reactions are incubated at room temperature for 20 min, quenched, dried in vacuo, resuspended, and visualized on a urea-polyacrylamide gel. Initial velocities of each reaction are calculated via densitometric analysis of the gel, and then normalized to vehicle control reactions to calculate percent activities. Dose-response plots are fitted with nonlinear regression to interpolate IC50.

[1] = biological target: T2, recombinant hTREX1(1-242)WT (hT1) (Homo sapiens, UniProt Q9NSU2); experiment: fluorescence-based exonuclease assay, hTREX1 IC50 and HTS; assay type: biochemical
T2 construct: recombinant hTREX1(1-242)^WT
T2 sequence (Q9NSU2 1-242): T1 sequence (Q9NSU2 1-242)
Procedure: FIG. 1: Determining IC50 of Candidate Compounds. […] Standard time-course reactions were prepared in 150 µL volumes containing vehicle or indicated concentrations of inhibitor (Panel A= 0.1-10 µM; Panel C= 1-50 µM), incubated 1 hr at room temperature, and 20 µL samples of each reaction taken at time-points of 0, 5, 10, 20, 30, 45, & 60 minutes and quenched in 20 µL of 15X SYBR Green. Fluorescence was measured, and fluorescence versus time plots were normalized to maximal initial fluorescence and background fluorescence. Plots were fitted with nonlinear regression, then initial velocities of each reaction interpolated and normalized to vehicle-only control reactions to give percent activity. Plots of inhibitor concentration versus percent activity were fit with nonlinear regression to interpolate compound IC50. Plots were generated in Prism (GraphPad) and combined in PowerPoint. Active compounds had IC50 determined in at least three separate experiments. Panels E-F: Gel Assay Validation of Hit Compound IC50. Several hit compounds, including those shown, had their IC50 confirmed via gel assay to validate efficacy of the fluorescence-based biochemical assay. Results of the gel and fluorescence assays were in agreement for all compounds tested. Standard time-course reactions containing nicked plasmid were prepared in 150 µL volumes with the indicated concentrations of inhibitor, and incubated at room temperature. Reaction samples were taken at indicated times, quenched, dried in vacuo, resuspended, then visualized by agarose gel electrophoresis. Control lanes containing supercoiled dsDNA plasmid (‘Plasmid’) and undegraded nicked dsDNA plasmid (‘Nicked’) are included. Low-MW residual bands are ssDNA plasmid leftover from TREX1 exonuclease activity.
We altered a reported fluorescence-based exonuclease assay^17,23 for the purposes of HTS. The assay parameters were optimized to limit materials use and maximize the dynamic range of the assay readout. We used this assay to perform a HTS of the three mentioned libraries against recombinant hTREX1(1-242)^WT, hereafter abbreviated as ‘hT1’. In the case of all libraries, compounds eliciting ≤50% activity at their indicated screening concentrations were identified as ‘candidates’.
The biochemical assay used for HTS was also applied to determining candidate IC50. Briefly, time-course reactions were performed for a range of concentrations for each candidate, and plots of fluorescence vs time were normalized to the initial fluorescence of the reaction and the plate-wide background fluorescence. This normalization helped address compounds with inherent effects on the fluorescent readout. Initial velocities were calculated from normalized plots and used to calculate percent activities relative to vehicle-only control reactions. Standard dose-response curves were then constructed to interpolate candidate IC50. […] Candidates that initially tested with IC50 ≤100 µM had their IC50 redetermined in two additional, independent experiments. […] To validate the efficacy of the fluorescence-based assay at determining IC50, several of the hit compounds had their IC50 confirmed using a gel assay previously described by our lab^23. Briefly, a dsDNA plasmid is nicked, the substrate is incubated with TREX1 which degrades off (partially or completely) the nicked strand, and the reaction is quenched in ethanol, dried in vacuo, and visualized via agarose gel electrophoresis. Example data of these validation assays is provided (FIG. 1, Panels E-F).

O=C1c2ccccc2C(=O)c2c1cc(S(=O)(=O)O)c(O)c2O [TIM009]
mechanism of inhibition classification (TREX1): mixed inhibitor
IC50 ([1]; experiment 1, read-out: IC50 #1): 300 nM
IC50 ([1]; experiment 2, read-out: IC50 #2): 1100 nM
IC50 ([1]; experiment 3, read-out: IC50 #3): 1500 nM
IC50 ([1]; median of three independent experiments, read-out: Median IC50): 1100 nM

Source: patent publication US20230278957A1, “TREX1 INHIBITORS AND USES THEREOF” (WAKE FOREST UNIVERSITY HEALTH SCIENCES, priority 2020, published 2023)
